Reference: paper PMC8197855, “Peptide/β-Peptoid Hybrids with Activity against Vancomycin-Resistant Enterococci: Influence of Hydrophobicity and Structural Features on Antibacterial and Hemolytic Properties” (International Journal of Molecular Sciences, 2021)
Values after ≈ are worked out from the molar mass of the structure shown.

Legend:
[1] = test system: enterococci; test: Checkerboard assay, overall synergy statements; assay type: cell-based, Enterococcus faecium and Enterococcus faecalis; conditions: for Resensitization of two vancomycin-resistant E. faecium isolates toward vancomycin / Sensitization of enterococcal isolates to gentamicin: sub-inhibitory concentrations; for Synergy with conventional antibiotics: vancomycin, gentamicin, ciprofloxacin, linezolid, rifampicin or azithromycin, synergy = FICI ≤ 0.5
Method: (§1) The strain culture preparation and final volume were the same as in the MIC assay. […] The plates were incubated for 24 h at 37 °C without shaking. […] All experiments were performed in two biological replicates.
(§2) To evaluate the effect of the combinations, the fractional inhibitory concentration index (FICI) was calculated for each combination according to:ΣFIC = FICA + FICB = (CA/MICA) + (CB/MICB)
(§3) The drug interaction was scored as follows: synergy—FICI ≤ 0.5; no interaction—FICI > 0.5–4; antagonism—FICI > 4 [40].

[2] = test system: E. faecalis ATCC 29212; test: microbe, parasite or virus in culture; assay type: cell-based, Enterococcus faecalis; conditions: ATCC 29212, 24 h
Method: (§4) Overnight cultures of the enterococcal isolates were diluted in physiological saline (0.9% NaCl) to reach a turbidity of 0.5 McFarland units (Sensititre® nephelometer and the Sensititre® McFarland Standard). Bacterial suspensions were adjusted to 5 × 10^5 CFU/mL in MHB II or BHI broth containing two-fold dilutions of peptidomimetics or conventional antibiotics in a final volume of 100 µL. The plates were incubated for 24 h at 37 °C without shaking. […] All experiments were performed in three biological replicates. […]

[3] = test system: E. faecalis (MV269); test: Membrane integrity, propidium iodide uptake by flow cytometry; assay type: cell-based, Enterococcus faecalis; conditions: peptidomimetics at MBC, nisin at MIC; 5 min
Method: Membrane integrity was assessed by using a propidium iodide (PI) uptake assay, as previously described. In brief, 2 μL of stationary enterococcal cultures were transferred to Falcon round-bottom tubes (14 mL; Corning), each containing 2 mL fresh BHI medium. Cultures were grown to an OD600 of 0.2 at 37 °C with shaking (180 rpm). […] Then, 15 μL of culture was transferred into 980 μL filtered phosphate-buffered saline, and then stained for 5 min with 5 μL of 0.1 mg/mL PI. After staining, the red fluorescence levels (FL3 channel) in cells were recorded by using a BD Biosciences Accuri C6 flow cytometer (Becton Dickinson). The settings of the flow cytometer were as follows: 25,000 recorded events at an FSC threshold of 15,000, and medium flow rate. The gating of the stained cell population and analysis of flow cytometry data were performed in CFlow (BD Accuri). The assessment of membrane integrity was performed in three biological replicates for each condition.

[4] = test system: E. faecalis isolates; assay type: cell-based, Enterococcus faecalis; conditions: 24 h
Method: (§5) Overnight cultures of the enterococcal isolates were diluted in physiological saline (0.9% NaCl) to reach a turbidity of 0.5 McFarland units (Sensititre® nephelometer and the Sensititre® McFarland Standard). Bacterial suspensions were adjusted to 5 × 10^5 CFU/mL in MHB II or BHI broth containing two-fold dilutions of peptidomimetics or conventional antibiotics in a final volume of 100 µL. The plates were incubated for 24 h at 37 °C without shaking. […] All experiments were performed in three biological replicates.

[5] = test system: E. faecalis ATCC 29212; test: Time-kill kinetics; assay type: cell-based, Enterococcus faecalis; conditions: for Reduction in viable bacteria (time-kill): 4× MIC (compound 2: 8 µg/mL, 2–4× MIC), 5 h exposure, BHI broth
Method: Time–kill kinetics were established for compounds 2, 5 and 10 in E. faecium ATCC 19434 and E. faecalis ATCC 29212. Prior to the experiments, the isolates were incubated on BHI agar supplemented with 5% calf blood at 37 °C overnight (ON). For each of the strains 1-2 colonies were transferred into 4 mL BHI broth and incubated ON at 37 °C with shaking (180 rpm). OD600 was measured, and then cultures were diluted with BHI broth to an OD600 of 0.05 and grown for approximately 2 h to reach the exponential phase.
One untreated control per strain was prepared. The inoculum was quantified by plating and subsequently enumerated. The initial inocula were approximately 10^7 CFU/mL. Two controls were included, both without bacteria and one including the respective compound without bacteria. All tubes were incubated at 37 °C with shaking (180 rpm). Samples of 100 µL were taken after 1 h, 3 h and 5 h of exposure. Appropriate dilutions were spread onto BHI agar plates and incubated at 37 °C overnight, and then colonies were enumerated. Plates were incubated for 24 h and 48 h, and then checked for the appearance of slow-growing colonies. The experiments were performed with at least three biological replicates for each condition and time point.

[6] = Hemolytic activity; assay type: cell-based, human; conditions: human, human red blood cells (washed, 1% suspension), 37 °C, 1% red blood cell suspension
Method: (§6) A suspension of hRBCs (Single-donor human red blood cells—washed; catalogue No. IPLA-W3 from Innovative researchTM) was washed three times with PBS buffer and centrifuged for 5 min at 2500 rpm. A two-fold serial dilution of compounds in PBS buffer was prepared. Plates (conical-bottomed 96-well plates) with 3 replicate wells per dilution, containing 1% red blood cell suspension, were prepared and dosed with the test compound to achieve a final concentration of 400 μg/mL in a total volume of 100 μL. The plates were incubated (37 °C) for 60 min with mild agitation, and then the cells were pelleted by centrifugation at 1500 rpm for 5 min. Then, the supernatants (50 μL) were transferred to a fresh 96-well plate, and then the concentration of hemoglobin was detected by measuring the OD at 405 nm. The OD of cells incubated with 1% SDS achieved 100% hemolysis, while the OD of cells incubated with PBS buffer achieved 0% hemolysis. The concentration tested was 400 μg/mL (only average values are stated in Table 3). The percent hemolysis was calculated by using the formula:Hemolysis(%) = 100 × [(Asample − Aneg.control)/(Apos. control − Aneg.control)]

[7] = test system: human red blood cells; test: Hemolytic activity; assay type: cell-based; conditions: 60 min, 37 °C, 1% red blood cell suspension
Method: as §6

[8] = test system: E. faecalis 38262; test: microbe, parasite or virus in culture; assay type: cell-based, Enterococcus faecalis; conditions: 38262, 24 h
Method: as §5

[9] = test system: E. faecalis 39002; test: microbe, parasite or virus in culture; assay type: cell-based, Enterococcus faecalis; conditions: 39002, 24 h
Method: as §5

[10] = test system: E. faecium ATCC 19434; test: microbe, parasite or virus in culture; assay type: cell-based, Enterococcus faecium; conditions: ATCC 19434, 24 h
Method: as §4

[11] = test system: E. faecium ATCC 19434; test: Broth checkerboard assay with conventional antibiotics; assay type: cell-based, Enterococcus faecium
Method: as §1, §2, §3

[12] = test system: E. faecium isolates; assay type: cell-based, Enterococcus faecium; conditions: 24 h
Method: as §5

[13] = test system: E. faecium and E. faecalis isolates; test: MIC summarised over all isolates; assay type: cell-based, Enterococcus faecium and Enterococcus faecalis; conditions: summary over all isolates
Method: as §5

SMILES | Resensitization of two vancomycin-resistant E. faecium isolates toward vancomycin [1] | Sensitization of enterococcal isolates to gentamicin [1] | Synergy with conventional antibiotics [1] | Minimum inhibitory concentration [2] [µg/mL] | Propidium iodide (PI) uptake, membrane integrity [3] | MIC (range) against E. faecalis [4] [µg/mL] | Reduction in viable bacteria (time-kill) [5] | Reduction in viable cell counts within 1 h ([5]; 4× MIC, within 1 h of exposure) | hemolysis at 60 min, 400 µg/mL [6] [%] | Hemolysis (at 400 µg/mL) [7] [%] | Minimum inhibitory concentration [8] [µg/mL] | Minimum inhibitory concentration [9] [µg/mL] | Minimum inhibitory concentration [10] [µg/mL] | Effect on the MIC of rifampicin ([11]; compound supplemented at 0.25× MIC) | Reduction in the MIC of rifampicin ([11]; compound supplemented at 0.5× MIC) | MIC (range or typical value) against E. faecium [12] [µg/mL] | MIC (range) against all E. faecium and E. faecalis isolates [13] [µg/mL]
CC(=O)N[C@@H](CCCCNC(=N)N)C(=O)N(CCC(=O)N[C@@H](CCCCN)C(=O)N(CCC(=O)N[C@@H](CCCCNC(=N)N)C(=O)N(CCC(=O)N[C@@H](CCCCN)C(=O)N(CCC(=O)N[C@@H](CCCCNC(=N)N)C(=O)N(CCC(=O)N[C@@H](CCCCN)C(=O)N(CCC(N)=O)[C@@H](C)c1ccccc1)[C@@H](C)C1CCCCC1)[C@@H](C)c1ccccc1)[C@@H](C)C1CCCCC1)[C@@H](C)c1ccccc1)[C@@H](C)C1CCCCC1 [Compound 5, Ac-[hArg-βNsce-Lys-βNspe]3-NH2] | this was not the case | did not sensitize | no synergy | 4 to 8 | less perturbation of membrane integrity | 4 to 16 | 3 log | no reduction in viable cell counts | < 10 | 9.4 | 8 to 16 | 8 to 16 | 4 (≈ 1.98 µM) |  |  |  | 
CCCCCCCC(=O)N[C@@H](CCCCN)C(=O)N(CCC(=O)N[C@@H](CCCCN)C(=O)N(CCC(=O)N[C@@H](CCCCN)C(=O)N(CCC(=O)N[C@@H](CCCCN)C(=O)N(CCC(=O)N[C@@H](CCCCN)C(=O)N(CCC(=O)N[C@@H](CCCCN)C(=O)N(CCC(N)=O)[C@@H](C)c1ccccc1)[C@@H](C)c1ccccc1)[C@@H](C)c1ccccc1)[C@@H](C)c1ccccc1)[C@@H](C)c1ccccc1)[C@@H](C)c1ccccc1 [Compound 10, Oct-[Lys-βNspe]6-NH2] | this was not the case | did not sensitize | no synergy | 8 to 16 | less perturbation of membrane integrity | 4 to 16 | 5 log |  | < 10 | 6.9 | 16 (≈ 8.15 µM) | 8 (≈ 4.07 µM) | 8 (≈ 4.07 µM) | no effect | 4–8 fold | 2 to 8 | 
CC(=O)N[C@@H](CCCCNC(=N)N)C(=O)N(CCC(=O)N[C@@H](CCCCNC(=N)N)C(=O)N(CCC(=O)N[C@@H](CCCCNC(=N)N)C(=O)N(CCC(=O)N[C@@H](CCCCNC(=N)N)C(=O)N(CCC(=O)N[C@@H](CCCCNC(=N)N)C(=O)N(CCC(=O)N[C@@H](CCCCNC(=N)N)C(=O)N(CCC(N)=O)[C@@H](C)C1CCCCC1)[C@@H](C)C1CCCCC1)[C@@H](C)C1CCCCC1)[C@@H](C)C1CCCCC1)[C@@H](C)C1CCCCC1)[C@@H](C)C1CCCCC1 [Compound 2, Ac-[hArg-βNsce]6-NH2] | this was not the case | did not sensitize | no synergy | 2 to 4 | significant accumulation of PI |  | approximately 2 log |  | 98.4 |  | 4 (≈ 1.84 µM) | 2 (≈ 0.922 µM) | 2 (≈ 0.922 µM) |  |  |  | 2 to 4
